# US20230271969A1, “NITROGEN-CONTAINING FUSED RING DERIVATIVE INHIBITOR, PREPARATION METHOD THEREFOR AND USE THEREOF” (Shanghai Hansoh Biomedical Co., Ltd., priority 2020, published 2023)
# Read-outs that look alike come from different tables or passages of the source.
# Experiments:
# [1] = test system: Senktide-induced bilateral ovariectomy rats; assay: Tail skin temperature in a Senktide-induced bilateral ovariectomy rat model; format: in vivo; details: OVX SD rats, oral 30 mg/kg, 30 min before s.c. Senktide, tail skin temperature over 75 min
# From the text: Pharmacodynamic Study of the Test Compounds on Tail Skin Temperature in a Senktide-Induced Bilateral Ovariectomy Rat Model
# To evaluate the effect of the test compounds on tail skin temperature in Senktide-induced bilateral ovariectomy rats.
# 2.3. Experimental Animals • Ten-Week-old female bilateral ovariectomy SD rats were purchased from Beijing Vital River Laboratory Animal Technology Co., Ltd. The animals were housed in a SPF grade animal facility with 5 SD rats per cage. The cages, bedding, feed and water were disinfected at high temperatures before use. All animals had free access to food and water.
# Ten-week-old female SD rats were subjected to bilateral ovariectomy and recovered for two weeks, and then randomly divided into negative control group, model group and drug administration group (8 rats per group), based on body weight. The probe was attached to the dorsal surface of the rat tail with medical tape, 1-2 cm away from the tailhead of the rat.
# The vehicle was administered orally to the negative control group and the model group, and different test compounds were administered orally to each drug administration group at a dose of 30 mg/kg and a volume of 10 mL/kg.
# Thirty minutes after the oral administration of the vehicle or test compound, the negative control group was injected subcutaneously with normal saline (at a volume of 5 mL/kg); the model group and each drug administration group were injected subcutaneously with 0.2 mg/mL of Senktide (at a volume of 5 mL/kg) to induce the hot flashes-like symptom.
# The change in tail skin temperature (ΔTST) at each time point relative to time point 0 was calculated, the ΔTST-time curve of the change in tail skin temperature was plotted, and the area under curve (AUCΔTST) was calculated. ΔTST=TSTn−TST0, TST0 is the tail skin temperature at 0 minute before the subcutaneous injection of normal saline or Senktide; TSTn is the tail skin temperature at the n minute after the subcutaneous injection.
# AUCΔTST=Σ(ΔTSTn+ΔTSTn+5)*5/2
# NK3 receptors [2] = biological target: T1, NK3 receptors (Homo sapiens, UniProt P29371); assay: Calcium ion fluidity (FLIPR) in cells with stable expression of NK3 receptors; format: cell-based; details: calcium signal, antagonist mode, read-out: NK3R IC50 (nM) FLIPR
# T1 construct: expressed in transfected cells
# T1 sequence (P29371 1-465): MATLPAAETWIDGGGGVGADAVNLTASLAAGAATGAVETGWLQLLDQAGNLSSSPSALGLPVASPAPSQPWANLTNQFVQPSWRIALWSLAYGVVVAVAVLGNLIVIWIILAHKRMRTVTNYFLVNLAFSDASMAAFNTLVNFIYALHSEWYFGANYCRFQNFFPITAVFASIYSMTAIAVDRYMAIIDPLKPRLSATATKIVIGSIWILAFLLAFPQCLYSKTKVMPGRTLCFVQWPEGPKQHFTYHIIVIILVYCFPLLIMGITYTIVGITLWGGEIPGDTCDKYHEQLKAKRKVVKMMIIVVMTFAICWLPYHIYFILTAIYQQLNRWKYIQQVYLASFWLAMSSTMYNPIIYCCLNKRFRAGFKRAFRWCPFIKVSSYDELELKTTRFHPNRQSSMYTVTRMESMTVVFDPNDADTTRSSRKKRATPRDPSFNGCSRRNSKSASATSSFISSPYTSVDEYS
# From the text: Determination of the Effect of the Compounds of the Present Invention on Calcium Ion Fluidity in Cells with Stable Expression of NK3 Receptors
# Experimental objective: The objective of this test example was to determine the inhibitory effect of the compounds on NK3 receptors.
# Experimental Methods: • 1. […] Probenecid and BSA were freshly added on the day of the experiment. The buffers for the experiments included dye buffer, compound dilution buffer and the like. • 2. […] The culture medium was discarded, and 20 μL of dye was added. The cells were incubated at 37° C. in the dark for 60 min, and then the calcium signal was read. • 4. The antagonist was prepared before the experiments. […] The plate was transferred to FLIPR, and 6× concentration of the agonist compound was added at 5 μL/well. The values were read and the data were saved by using FLIPR. The total assay volume was 30 μL, comprising 20 μL/well of dye buffer, 5 μL/well of 5× concentration of the experimental compound, and 5 μL/well of 6× concentration of the agonist compound.
# The calcium signal value was read by FLIPR. The output of each sampling time point in the experiment was calculated as the ratio of the signals at wavelengths of 340/510 nm to 380/510 nm. The maximum minus minimum value was calculated from the ratio signal curve. The IC50 value of the compound was calculated by fitting the data of inhibition rate percentage and ten concentrations to the parametric nonlinear logistic equation by using GraphPad prism.
# NK3 receptors [3] = biological target: T1, NK3 receptors; assay: Antagonism of IP1 in HEK293 cells with stable expression of NK3; format: cell-based; details: agonist Senktide 3 nM, read-out: NK3R IC50 (nM) IP1
# Description: Determination of the Effect of the Compounds of the Present Invention on IP1 in HEK293 Cells with Stable Expression of NK3
# The objective of this test example was to determine the antagonism effect of the compounds on the activity of HEK293-NK3 cells.
# 3. Experimental Methods: • 1. […] HEK293-NK3 cell line was cultured in complete medium and seeded in the coated dishes at 37° C., 5% CO2 until 70%˜90% confluence. • 3. […] The cells were digested and resuspended in 1× Stimulation Buffer (IP-ONE Gq Kit), seeded into the 384-well cell culture plate (which contained the compound to be tested) at 5,000 cells/well/5 μL by using Multidrop Combi. The culture plate was centrifuged at 300 rpm at room temperature for 60 seconds, and then incubated at 37° C., 5% CO2 for 15 minutes. • 5. The cell culture plate was taken out from the CO2 incubator. […] The culture plate was centrifuged at 300 rpm at room temperature for 60 seconds, and then incubated at 37° C., 5% CO2 for 2 hours. • 6. The cell culture plate was taken out from the CO2 incubator. 5 μL of IP1 d2 reagent and then 5 μL of IP1 Tb Cryptate Antibody reagent were added by using Multidrop Combi. The culture plate was centrifuged at room temperature at 300 rpm for 60 seconds, and left to stand at room temperature for 1 hour. • 7. The plate was read by using EnVision Multilabel Reader, and data were collected at the same time.
# The fluorescence signal ratio (Ratio) was read and collected by EnVision Multilabel Reader. According to the readings of the Low control (DMSO control) and High control (p)ositive compound) experimental groups, the antagonism percentage data were calculated as {% antagonism=(Ratio sample−Ratio low control)/(Ratio high control−Ratio low control)×100}.
# [4] = Pharmacokinetic assay in SD rats (plasma and brain tissue); format: in vivo; details: rat, po, male SD rats, p.o. 5 mg/kg; for AUC(0-t): read-out: Area under curve AUC0-t; for Tmax: read-out: Peak time tmax; for Cmax: read-out: Plasma concentration Cmax
# Description: Test Example 4. Pharmacokinetic Assays in SD Rats
# SD rats were used as test animals. The in vivo (plasma and brain tissue) pharmacokinetic behavior of the compounds of the present invention was investigated by oral administration of the compound in rats at a dose of 5 mg/kg.
# Male SD rats (21 animals per group), purchased from Shanghai JieSiJie Laboratory Animal Co., Ltd., under the Animal Production License Number of SCXK (Shanghai) 2013-0006 No. 311620400001794.
# The experimental drug was dissolved in 0.5% CMC-Na (1% Tween 80) by sonication to formulate a clear solution or a homogeneous suspension.
# After an overnight fast, male SD rats (21 animals per group) were administered p.o. with the experimental drug at an administration dose of 5 mg/kg and the administration volume of 10 mL/kg.
# Rats were sacrificed with CO2 at 0, 0.5, 1, 2, 4, 8 and 24 hours before and after the drug administration. 8 mL of blood was collected by cardiac puncture, placed in EDTA-K2 tubes, and centrifuged at 4° C. at 6,000 rpm for 6 min. Plasma was separated and stored at −80° C. The whole brain tissue was dissected and weighed, and then placed in a 2 mL centrifuge tube and stored at −80° C.
# 2.6 Sample Processing: • 1) 160 μL of acetonitrile was added to 40 μL of plasma sample for precipitation. After mixing, the sample was centrifuged at 3500×g for 5-20 minutes. • 2) 90 μL of acetonitrile containing internal standard (100 ng/mL) was added to 30 μL of plasma or brain homogenate sample for precipitation. After mixing, the sample was centrifuged at 13,000 rpm for 8 minutes. • 3) 70 μL of water was added to 70 μL of treated supernatant, and mixed by vortex for 10 minutes. Then 20 μL of the sample was analyzed by LC/MS/MS to determine the concentration of the compound to be tested. The LC/MS/MS instrument for analysis was AB Sciex API 4000 Qtrap.
# 2.7 Liquid Chromatography Analysis: • Liquid chromatography conditions: Shimadzu LC-20AD pump • Chromatographic column: Agilent ZORBAX XDB-C18 (50×2.1 mm, 3.5 μm) Mobile phase: Eluent A was 0.1% formic acid in water, and Eluent B was acetonitrile. • Flow rate: 0.4 mL/min • Elution time: 0-4.0 minutes, the eluate was as follows:
# The major pharmacokinetic parameters were calculated by using WinNonlin 6.1, and the results of the pharmacokinetic experiments in rats were shown in Table 3 below: […]
SMILES,AUCΔTST [1],IC50 (NK3 receptors [2]),IC50 (NK3 receptors [3]),AUC(0-t) ([4]; Brain),Tmax ([4]; Brain),Cmax ([4]; Brain),AUC(0-t) ([4]; Plasma),"half-life ([4]; Plasma, read-out: Half life t1/2 (converted))","MRT ([4]; Plasma, read-out: Mean residence time MRT)",Tmax ([4]; Plasma),Cmax ([4]; Plasma)
Cc1nsc(-c2nnc3n2CCN(C(=O)c2ccc(F)cc2)[C@@H]3C)n1 [Fezolinetant],116.7 ± 50.6 °C · min,904 nM,–,–,–,–,–,–,–,–,–
"C[C@@H]1c2nnc(-c3nc4ccccc4s3)n2CCN1C(=O)c1ccc(Cl)cc1 [Example 3, (R)-(3-(Benzo[d]thiazol-2-yl)-8-methyl-5,6-dihydro-[1,2,4]triazolo[4,3-a]pyrazin-7 (8H)-yl)(4-chlorophenyl)methanone]",81.3 ± 37.4 °C · min,30.5 nM,68.7 nM,–,–,–,–,–,–,–,–
"C[C@@H]1c2nnc(-c3nc(Cl)ns3)n2CCN1C(=O)c1ccc(Cl)cc1 [Example 57, (R)-(3-(3-Chloro-1,2,4-thiadiazol-5-yl)-8-methyl-5,6-dihydro-[1,2,4]triazolo[4,3-a]pyrazin-7(8H)-yl)(4-chlorophenyl)methanone]",–,61 nM,28.9 nM,2340 ng·h/mL,1 h,670 ng/mL,7130 ng·h/mL,3.2 h,4.8 h,2 h,930 ng/mL
"[2H]c1c([2H])c(C(=O)N2CCn3c(-c4nc5ccccc5s4)nnc3[C@H]2C)c([2H])c([2H])c1F [Example 2, (R)-(3-(Benzo[d]thiazol-2-yl)-8-methyl-5,6-dihydro-[1,2,4]triazolo[4,3-a]pyrazin-7 (8H)-yl)(4-fluorophenyl-2,3,5,6-d4)methanone]",71.3 ± 25.5 °C · min,58.2 nM,171 nM,–,–,–,–,–,–,–,–
"C[C@@H]1c2nnc(-c3nc4cc(F)ccc4s3)n2CCN1C(=O)c1ccc(Cl)c(Cl)c1 [Example 11, (R)-(3,4-Dichlorophenyl)(3-(5-fluorobenzo[d]thiazol-2-yl)-8-methyl-5,6-dihydro-[1,2,4]triazolo[4,3-a]pyrazin-7(8H)-yl)methanone]",–,47.5 nM,176 nM,–,–,–,–,–,–,–,–
"C[C@@H]1c2nnc(-c3nc4ccc(F)cc4s3)n2CCN1C(=O)c1ccc(F)cc1 [Example 12, (R)-(3-(6-Fluorobenzo[d]thiazol-2-yl)-8-methyl-5,6-dihydro-[1,2,4]triazolo[4,3-a]pyrazin-7(8H)-yl)(4-fluorophenyl)methanone]",–,37 nM,39.3 nM,–,–,–,–,–,–,–,–
"C[C@@H]1c2nnc(-c3nc4cc(F)c(F)cc4s3)n2CCN1C(=O)c1ccc(F)cc1 [Example 17, (R)-(3-(5,6-Difluorobenzo[d]thiazol-2-yl)-8-methyl-5,6-dihydro-[1,2,4]triazolo[4,3-a]pyrazin-7(8H)-yl)(4-fluorophenyl)methanone]",–,6.81 nM,15.2 nM,3230 ng·h/mL,4 h,1120 ng/mL,46700 ng·h/mL,–,–,6 h,2300 ng/mL
